One assay concerns the target T1, R282D-PepT1 (Oryctolagus cuniculus, UniProt P36836, R282D).
T1 construct: expressed in transfected cells; host or cells: Xenopus laevis oocytes injected with cRNA
T1 sequence (P36836 1-707 R282D): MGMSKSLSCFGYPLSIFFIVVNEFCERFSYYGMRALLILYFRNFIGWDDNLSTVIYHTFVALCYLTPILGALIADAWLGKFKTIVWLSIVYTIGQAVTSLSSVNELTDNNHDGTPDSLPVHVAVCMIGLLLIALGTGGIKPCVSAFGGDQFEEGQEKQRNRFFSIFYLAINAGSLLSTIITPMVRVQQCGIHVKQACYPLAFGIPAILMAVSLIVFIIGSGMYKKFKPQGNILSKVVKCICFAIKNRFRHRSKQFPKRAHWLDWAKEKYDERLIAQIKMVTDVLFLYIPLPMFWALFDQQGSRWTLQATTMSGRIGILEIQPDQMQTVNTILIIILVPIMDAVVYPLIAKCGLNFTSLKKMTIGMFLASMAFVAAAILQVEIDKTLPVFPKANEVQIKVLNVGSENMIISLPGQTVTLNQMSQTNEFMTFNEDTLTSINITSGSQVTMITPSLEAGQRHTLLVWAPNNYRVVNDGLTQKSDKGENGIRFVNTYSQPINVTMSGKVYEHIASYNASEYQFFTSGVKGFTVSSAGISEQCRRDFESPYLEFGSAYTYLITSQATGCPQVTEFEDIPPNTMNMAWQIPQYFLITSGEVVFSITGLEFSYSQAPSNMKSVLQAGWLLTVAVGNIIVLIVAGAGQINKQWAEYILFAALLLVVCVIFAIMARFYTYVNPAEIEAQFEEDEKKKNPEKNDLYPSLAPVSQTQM
The assay is described as follows: Apparent charge:peptide stoichiometry (two-electrode voltage clamp current / radiolabelled uptake), R282D-PepT1. The class given is cell-based, rabbit. To be noted: R282D-PepT1, pHout 5.5, resting membrane potential. Here is the method: Measurements of membrane potential were made by impaling oocytes with a single glass microelectrode (Intra 767 amplifier, WPI, Stevenage, Hertfordshire, UK) perfused in uptake medium (as above) with or without 0.4 μM D-Phe-L-Gln (synthesised in house), 0.6 mM Gly-L-Gln (Sigma, Poole, UK) or 10 mM 4-aminobenzoic acid (4-AMBA, Sigma). Two-electrode voltage clamp (TEVC) was performed by placing oocytes in a 0.1 ml recording chamber and perfusing with uptake solution (pH 5.5 or 7.4) at a rate of 15 ml/min. Oocytes were impaled by two agarose-cushioned microelectrodes filled with 3 M KCl (0.5–2.0 MΩ) and voltage-clamped at −60 mV using a Geneclamp 500B amplifier and PCLAMP 8.1 software (Axon Instruments, CA, USA). The holding potential was stepped from −60 mV over the range of −150 to +50 mV in 10 mV steps, each pulse lasting 100 ms, and returning to −60 mV in between test voltage pulses. Typically traces were filtered at 1 kHz during recording and digitized at 0.5–5 kHz using the DigiData 1200 interface (Axon Instruments, CA, USA). All experiments were carried out at room temperature.
In order to calculate the apparent charge:substrate stoichiometry, the peptide induced current that was measured by two-electrode voltage clamp at the oocyte resting membrane potential was divided by the radiolabelled dipeptide uptake in oocytes from the same preparation. […]
(Two-electrode voltage clamp is typically applied to oocytes expressing channels or transporters.)

The target of another assay is T2, R282H-PepT1 (Oryctolagus cuniculus, UniProt P36836, R282H).
T2 construct: expressed in transfected cells; host or cells: Xenopus laevis oocytes injected with cRNA
T2 sequence (P36836 1-707 R282H): T1 sequence (P36836 1-707 R282D) with D282H
As to the kind of experiment: Inhibition of [3H]-D-Phe-L-Gln uptake into Xenopus oocytes expressing R282H-PepT1 (competition, Ki). It is filed as cell-based, rabbit. The conditions noted are these: pHout 5.5, 0.4 μM [3H]-D-Phe-L-Gln. Here is the method:
Zero-trans uptake of [^3H]-D-Phe-L-Gln (17.4 Ci/mmole, custom synthesised, Cambridge Research Biochemicals, Stockton-on-Tees, UK) was performed as previously described ([Meredith, 2004]). Briefly, 5 oocytes were incubated in 100 μl of uptake medium (95 mM NaCl, 2 mM KCl, 1 mM CaCl2, 0.42 mM MgCl2, 10 mM Tris/Hepes pH 7.4 or Tris/Mes pH 5.5) with tracer (0.4 μM) [^3H]-D-Phe-L-Gln. After incubation, the oocytes were washed sequentially five times in 1 ml of ice-cold 120 mM NaCl solution, lysed individually with 100 μl 2% (w/v) SDS and liquid scintillation counted. As a control non-injected oocytes were also incubated in uptake medium with [^3H]-D-Phe-L-Gln as above.
The affinity of wild-type and mutant PepT1 were assessed by competition studies with 0.4 μM [^3H]-D-Phe-L-Gln and Gly-L-Gln present in the uptake medium in concentrations from 0 to 2 mM using the protocol above, and the Ki calculated using the method of [Deves and Boyd (1989)].

Experimental findings from publication PMC2267855, “Site-directed mutagenesis of Arginine282 suggests how protons and peptides are co-transported by rabbit PepT1” (The International Journal of Biochemistry & Cell Biology, 2008) are described below.

Structures are written as SMILES. Where a chain is given by its changes, count along the chain named. Where a SMILES comes first, the peptide text is derived from it.

As to `NC(=O)CC[C@H](NC(=O)[C@H](N)Cc1ccccc1)C(=O)O` [D-Phe-L-Gln], the “apparent stoichiometry (charge:peptide), normalised to wild-type 1:1” value at R282D-PepT1 turned out to be 5.

What is called Ki is a dissociation constant, usually derived from enzyme kinetics or from competition with a known ligand. A low value points to higher affinity. `NCC(=O)N[C@@H](CCC(N)=O)C(=O)O` [Gly-L-Gln] (H-Gly-Gln-OH) showed a Ki at R282H-PepT1 of 300 ± 150 µM.
